The record followed here is PubChem BioAssay AID1259408 (Genetic Toxicology Data Bank (GENE-TOX), 2018).

Active and inactive are the calls of the source. No rule for the calls is given here.

This data set concerns GENE-TOX genotoxicity assays, various organisms and cells. Kind of data set: GENE-TOX mutagenicity studies.
Where [1] appears, read: Species/Cell Type: Salmonella typhimurium (one or more of the five standard strains: TA98, TA100, TA1535, TA1537, and TA1538), Assay Type: Histidine reverse gene mutation, Ames assay, Assay Code: SAL+, Evaluation Type: Evaluation A (Pre-1980).
[2] abbreviates: Species/Cell Type: Nonhuman, Assay Type: Sister-chromatid exchange (SCE) in vitro, Assay Code: SC2T, Evaluation Type: Evaluation B (Post-1980).
Where [3] appears, read: Species/Cell Type: Saccharomyces cerevisiae, Assay Type: Mitotic recombination or gene conversion, Assay Code: YEH-, Evaluation Type: Evaluation A (Pre-1980).
Setting [4] is: Species/Cell Type: Salmonella typhimurium (one or more of the five standard strains: TA98, TA100, TA1535, TA1537, and TA1538), Assay Type: Histidine reverse gene mutation, Ames assay, Assay Code: SAL-, Evaluation Type: Evaluation A (Pre-1980).
The mark [5] stands for this setting: Species/Cell Type: Salmonella typhimurium (one or more of the five standard strains: TA98, TA100, TA1535, TA1537, and TA1538), Assay Type: Histidine reverse gene mutation, Ames assay, Assay Code: SALT, Evaluation Type: Evaluation A (Pre-1980).
The mark [6] stands for this setting: Species/Cell Type: Nonhuman, Assay Type: Sister-chromatid exchange (SCE) in vitro, Assay Code: SC2+, Evaluation Type: Evaluation B (Post-1980).
Where [7] appears, read: Species/Cell Type: Nonhuman, Assay Type: Sister-chromatid exchange (SCE) in vivo, Assay Code: SC3T, Evaluation Type: Evaluation B (Post-1980).
Setting [8] is: Species/Cell Type: Saccharomyces cerevisiae, Assay Type: Mitotic recombination or gene conversion, Assay Code: YEC+, Evaluation Type: Evaluation A (Pre-1980).

Consider `COc1ccc(CCN2CCC(Nc3nc4ccccc4n3Cc3ccc(F)cc3)CC2)cc1`, for which the mutagenic call is “no conclusion” (Species/Cell Type: Human lymphocytes, Assay Type: Sister-chromatid exchange (SCE) in vitro, Assay Code: SCLT, Evaluation Type: Evaluation B (Post-1980)); “no conclusion” (Species/Cell Type: Human, Assay Type: Sister-chromatid exchange (SCE) in vitro, Assay Code: SC1T, Evaluation Type: Evaluation B (Post-1980)); “inactive; negative” (Species/Cell Type: Mammalian polychromatic erythrocytes, Assay Type: Micronucleus test, chromosome aberrations, Assay Code: MNT-, Evaluation Type: Evaluation B (Post-1980)).
As to `COP(=S)(OC)Oc1cc(Cl)c(Br)cc1Cl`, the mutagenic call (Species/Cell Type: Drosophila melanogaster, Assay Type: Sex-linked recessive lethal gene mutation, Assay Code: SRLT, Evaluation Type: Evaluation A (Pre-1980)) was “no conclusion”.
Take `Cc1nc2ccc([N+](=O)[O-])cc2[nH]1`: the mutagenic call under setting [1] was “active; positive”.
For the molecule `CCCCCCCCCCCCCC(=O)O[C@@H]1[C@@H](C)[C@@]2(O)[C@@H](C=C(CO)C[C@]3(OC)C(=O)C(C)=C[C@@H]23)[C@@H]2C(C)(C)[C@]12OC(C)=O`, the mutagenic call by setting is: (Species/Cell Type: Nonhuman, Assay Type: Sister-chromatid exchange (SCE) in vitro, Assay Code: SC2-, Evaluation Type: Evaluation A (Pre-1980)) “inactive; negative”; under setting [2], “no conclusion”.
For `CCN(CC)c1ccc(N=Nc2ccccc2)cc1`, the mutagenic call is “inactive; negative” under setting [3] and “inactive; negative” under setting [4].
Consider `Cc1cc2ccccc2c2cc(F)c3ccccc3c12`, for which the mutagenic call under setting [5] was “no conclusion”.
As for `CCOP(=S)(OCC)SCSP(=S)(OCC)OCC`, the mutagenic call (Species/Cell Type: Bacillus subtilis (H17 vs M45), Assay Type: Rec-assay, spot test, DNA effects (bacterial DNA repair), Assay Code: REWT, Evaluation Type: Evaluation A (Pre-1980)) was “no conclusion”; the mutagenic call (Species/Cell Type: Escherichia coli polA (W3119 vs P3478), Assay Type: Rec-assay, DNA effects (bacterial DNA repair), Assay Code: RE1T, Evaluation Type: Evaluation A (Pre-1980)) is “no conclusion”; the mutagenic call (Species/Cell Type: Human diploid fibroblasts, Assay Type: Unscheduled DNA synthesis (UDS) in vitro, DNA effects, Assay Code: UDH-, Evaluation Type: Evaluation A (Pre-1980)) is “inactive; negative”; the mutagenic call (Species/Cell Type: Human, Assay Type: Sister-chromatid exchange (SCE) in vitro, Assay Code: SC1-, Evaluation Type: Evaluation B (Post-1980)) is “inactive; negative”; the mutagenic call under setting [3] is “inactive; negative”; the mutagenic call under setting [4] is “inactive; negative”.
Turning to `Nc1ncnc2c1ncn2[C@@H]1O[C@H](COP(=O)(O)OP(=O)(O)OP(=O)(O)O)[C@@H](O)[C@H]1O`, for the setting “Species/Cell Type: Drosophila melanogaster, Assay Type: Aneuploidy, whole sex chromosome loss, chromosome aberrations, Assay Code: DAC-M, Evaluation Type: Evaluation A (Pre-1980)”, the mutagenic call is “inactive; negative”.
In the case of `CC(=O)OC(c1ccc2c(c1)OCO2)C1CO1` (stereo not given), the mutagenic call under setting [1] is “active; positive”.
As for `C=COCC`, the mutagenic call under setting [6] is “active; positive”.
For `O=C1CN=C(c2ccccc2)c2cc([N+](=O)[O-])ccc2N1`, under “Species/Cell Type: Aspergillus nidulans, Assay Type: Forward gene mutation, Assay Code: ASF+, Evaluation Type: Evaluation A (Pre-1980)”, the mutagenic call was “active; positive”.
For the molecule `Cc1ccc2c(C)c3ccc4ccccc4c3nc2c1`, the mutagenic call (Species/Cell Type: Salmonella typhimurium (one or more of the five standard strains: TA98, TA100, TA1535, TA1537, and TA1538), Assay Type: Histidine reverse gene mutation, Ames assay, Assay Code: SAL+*, Activation: With metabolic activation, Evaluation Type: Evaluation A (Pre-1980)) was “active; positive”.
On to `CN/C(=C\[N+](=O)[O-])NCCSCc1ccc(CN(C)C)o1`, for which, under setting [7], the mutagenic call was “no conclusion”.
On to `O=C=Nc1ccc(Nc2ccc([N+](=O)[O-])cc2)cc1`, for which, under setting [5], the mutagenic call is recorded as “no conclusion”.
In the case of `CCOP(=S)(OCC)Oc1ccc(Cl)cc1Cl`, the mutagenic call (Species/Cell Type: Human, Assay Type: Sister-chromatid exchange (SCE) in vitro, Assay Code: SC1+D, Dose Response: With dose response, Evaluation Type: Evaluation B (Post-1980)) is “active; positive”.
Turning to `C=CCCCCCC=CCC#CC#CC=CC`, under setting [2], the mutagenic call is given as “no conclusion”.
Turning to `Nc1ccc2cc3ccc(N)cc3nc2c1`, the mutagenic call is, setting by setting: (Species/Cell Type: Drosophila melanogaster, Assay Type: Aneuploidy, sex chromosome gain, chromosome aberrations, Assay Code: DAGT, Evaluation Type: Evaluation A (Pre-1980)) “no conclusion”; (Species/Cell Type: Drosophila melanogaster, Assay Type: Aneuploidy, whole sex chromosome loss, chromosome aberrations, Assay Code: DAC+F, Evaluation Type: Evaluation A (Pre-1980)) “active; positive”; (Species/Cell Type: Escherichia coli polA (W3119 vs P3478), Assay Type: Rec-assay, DNA effects (bacterial DNA repair), Assay Code: RE1+, Evaluation Type: Evaluation A (Pre-1980)) “active; positive”; (Species/Cell Type: Human lymphocytes, Assay Type: Sister-chromatid exchange (SCE) in vitro, Assay Code: SCL+, Evaluation Type: Evaluation B (Post-1980)) “active; positive”; (Species/Cell Type: Human, Assay Type: Sister-chromatid exchange (SCE) in vitro, Assay Code: SC1+, Evaluation Type: Evaluation B (Post-1980)) “active; positive”; (Species/Cell Type: Mouse lymphoma (L5178Y) cells, Assay Type: Forward gene mutation at the thymidine kinase (TK) locus, chromosome aberrations, Assay Code: L51+, Evaluation Type: Evaluation A (Pre-1980)) “active; positive”. Besides, the mutagenic call reads like this: under setting [6], “active; positive”; (Species/Cell Type: Nonhuman, Assay Type: Sister-chromatid exchange (SCE) in vitro, Assay Code: SC2+D, Dose Response: With dose response, Evaluation Type: Evaluation A (Pre-1980)) “active; positive”; (Species/Cell Type: Nonhuman, Assay Type: Sister-chromatid exchange (SCE) in vivo, Assay Code: SC3-, Evaluation Type: Evaluation A (Pre-1980)) “inactive; negative”; under setting [7], “no conclusion”; under setting [8], “active; positive”; (Species/Cell Type: Saccharomyces cerevisiae, Assay Type: Mitotic recombination or gene conversion, Assay Code: YECT, Evaluation Type: Evaluation A (Pre-1980)) “no conclusion”. Further, the mutagenic call under setting [1] was “active; positive”. For the same molecule, the call (Species/Cell Type: Nonhuman, Assay Type: In vivo carcinogenicity studies, Assay Code: CCGT, Evaluation Type: Evaluation A (Pre-1980)) was “no conclusion”.
On to `COC(=O)c1ccc(N=Nc2ccc(N(C)OC(C)=O)cc2)cc1`, for which the mutagenic call under setting [1] was “active; positive”.
As to `O=[N+]([O-])c1ccc(-c2ncn[nH]2)o1`, the mutagenic call by setting is: (Species/Cell Type: Escherichia coli WP2, Assay Type: Tryptophan reverse gene mutation, Assay Code: WP2-, Evaluation Type: Evaluation A (Pre-1980)) “inactive; negative”; (Species/Cell Type: Escherichia coli WP2 UVRA, Assay Type: Tryptophan reverse gene mutation, Assay Code: WPU+, Evaluation Type: Evaluation A (Pre-1980)) “active; positive”.
`C[C@]1(O)CC[C@H]2[C@@H]3CCC4=CC(=O)CC[C@]4(C)[C@@]3(F)[C@@H](O)C[C@@]21C`: under “Species/Cell Type: Human, Sex: Male, Assay Type: Sperm morphology, Assay Code: SPHT, Evaluation Type: Evaluation A (Pre-1980)”, the mutagenic call is “no conclusion”.
As for `O[C@H]1[C@@H]2O[C@@H]2c2cc3ccc4cccc5ccc(c2[C@@H]1O)c3c45`, the mutagenic call (Species/Cell Type: Mouse prostate cells, Assay Type: Cell transformation, Assay Code: CTM-, Evaluation Type: Evaluation A (Pre-1980)) is “inactive; negative”.
Regarding `CN(N=O)C1=Nc2ccc(Cl)cc2C(c2ccccc2)=[N+]([O-])C1`, the mutagenic call (Species/Cell Type: Saccharomyces cerevisiae, Assay Type: Mitotic recombination or gene conversion, Assay Code: YEC+*, Activation: With metabolic activation, Evaluation Type: Evaluation A (Pre-1980)) is “active; positive”; the mutagenic call (Species/Cell Type: Salmonella typhimurium, Assay Type: Forward and reverse gene mutation, host-mediated assay, Assay Code: HMA+, Evaluation Type: Evaluation A (Pre-1980)) is “active; positive”.
Turning to `CCCCC(=O)N(C)N=O`, where the note is “Species/Cell Type: Saccharomyces cerevisiae, Assay Type: Reverse gene mutation, Assay Code: YER+, Evaluation Type: Evaluation A (Pre-1980)”, the mutagenic call is “active; positive”.
Regarding `C[C@@H]1[C@H](O)[C@@H](C)/C=C/C=C/C=C/C=C/C=C/C=C/C=C/[C@H](O[C@@H]2O[C@H](C)[C@@H](O)[C@H](N)[C@@H]2O)C[C@@H]2O[C@](O)(C[C@@H](O)C[C@@H](O)[C@H](O)CC[C@@H](O)C[C@@H](O)CC(=O)O[C@H]1C)C[C@H](O)[C@H]2C(=O)O`, the mutagenic call (Species/Cell Type: Aspergillus nidulans, Assay Type: Aneuploidy, chromosome aberrations, Assay Code: ASN+, Evaluation Type: Evaluation A (Pre-1980)) was “active; positive”.
As to `CCN(CC)CCNc1ccc(COC(=O)c2ccco2)c2sc3ccccc3c(=O)c12`, the mutagenic call under setting [1] was “active; positive”.
Regarding `[Cl][Sb]([Cl])([Cl])([Cl])[Cl]`, where the note is “Species/Cell Type: Bacillus subtilis (H17 vs M45), Assay Type: Rec-assay, spot test, DNA effects (bacterial DNA repair), Assay Code: REW+, Evaluation Type: Evaluation A (Pre-1980)”, the mutagenic call is “active; positive”.
Consider `CC(C)NC(=O)/C=C/c1ccc([N+](=O)[O-])o1`, for which the mutagenic call (Species/Cell Type: Chinese hamster lung (V79) cells, Assay Type: Forward gene mutation at the HPRT or ouabain locus, Assay Code: V79+, Evaluation Type: Evaluation A (Pre-1980)) was “active; positive”; the mutagenic call (Species/Cell Type: Neurospora crassa, Assay Type: Forward gene mutation, Assay Code: NEF+, Evaluation Type: Evaluation A (Pre-1980)) is “active; positive”; the mutagenic call (Species/Cell Type: Neurospora crassa, Assay Type: Reverse gene mutation, Assay Code: NER+, Evaluation Type: Evaluation A (Pre-1980)) was “active; positive”; the mutagenic call under setting [8] was “active; positive”; the mutagenic call under setting [1] was “active; positive”.
